The values that follow come from patent publication US7781464B2, “Heterocyclic diphenyl ethers” (Bexel Pharmaceuticals, Inc., priority 2003, dated 2010).

The subject of one data set is 3T3-L1 adipocytes. The experiment in a line: Basal glucose uptake in 3T3-L1 adipocytes (14C-2-deoxyglucose). The following applies: 1.0 μM, 72 hours treatment, 10 minutes uptake without insulin, vs 0.1% DMSO. The class given is cell-based. How it is done: Referring to FIG. 1, 3T3-L1 fibroblasts were differentiated to adipocytes by a cocktail containing insulin, dexamethasone and IBMX for four days. Fully differentiated adipocytes were treated with the compounds (1.0 μM concentrations) or 0.1% DMSO for 72 hours and then glucose uptake was carried out for 10 minutes without any addition of insulin. Basal uptake was initiated by addition of radioactive ^14C-2-deoxyglucose and after 10 minutes they were washed with cold PBS mixed with cold glucose. At the end, the cells were solubilized with 0.1% SDS and counted in a Beckman scintillation counter.

In data set [1] the test system is LPS-induced NO production. Nature of the data set: Inhibition of LPS-induced NO production in RAW 264.7 macrophages (Griess nitrite). Particulars: RAW 264.7, 30 μM, LPS 200 ng/mL + IFN-γ 10 U/mL, 18 hours. The class given is cell-based, mouse. How it is done: Mouse macrophages (RAW 264.7) were plated in 6-well plate (2 million cells/well), and incubated at 37° C. with LPS (200 ng/mL+IFN-γ 10 U/mL) for 18 hours. Nitrite levels were measured by the Griess reagent. All of the compounds were tested at 30 μM concentrations.

In another data set the test system is 3T3-L1 fibroblasts. The experiment in a line: Adipogenesis in 3T3-L1 fibroblasts (Oil-red-O staining). The class given is cell-based. Particulars: stained on day 11, rosiglitazone 10 μM positive control. On the procedure:
All known PPAR-γ agonists (both TZD or non-TZDs) induce differentiation in the fibroblast cells. The adipogenic potential of these compounds are correlated with their affinity to this receptor. Referring to FIG. 3, to check whether the Compounds 1 and 2 have any affinity to these receptors, 3T3-L1 fibroblasts were treated with either DMSO control or rosiglitazone (all at 10 μM concentrations) as positive control or these two compounds for several days at different concentrations. On day 11th, the differentiated adipocytes were stained with Oil-red-O (Sigma) and washed thoroughly to remove the unbound stain. The stained differentiated adipocytes were visualized under high-resolution microscope.

In a further data set the test system is TNFα. Nature of the data set: TNFα inhibition in LPS-challenged human PBMC (ELISA). The class given is cell-based. Particulars: 10 μM, LPS 100 ng/mL for 20 hours. How it is done:
Referring to FIG. 7, human PBMC cells were cultured and incubated with Compound 1 and 2 at 10 μM concentration. Cells (1×10^6/mL) were challenged with lipopolysaccharides (LPS) at a concentration of (100 ng/mL) for 20 hours. TNF was measured by ELISA.
On the technique in general: ELISA stands for enzyme-linked immunosorbent assay.

Data set [2] relates to db/db (spontaneous model) diabetic mice. Nature of the data set: Blood glucose lowering in db/db diabetic mice. The following applies: oral, 50 mg/kg body weight, daily. It is filed as in vivo. How it is done:
Referring to FIG. 4, ten week old male db/db (spontaneous model) diabetic mice were orally treated with compound 1 at a dose of 50 mg/kg body weight and blood glucose was monitored by one touch glucometer every day morning before the next dose.

Data set [3] concerns db/db mice. The experiment in a line: Oral glucose tolerance in db/db mice. Particulars: 50 mg/kg once daily for 14 days, oral glucose challenge 2 g/kg BW. It is filed as in vivo. How it is done: Referring to FIG. 5, db/db mice (6-8 weeks old) were treated with Compound 2 (50 mg/kg) once daily for 14 days. On day 14 the animals were fasted overnight and gavaged with Compound 2, one hour prior to oral glucose challenge (2 g/kg BW).

The subject of data set [4] is human liver cells (HepG2). Nature of the data set: Cytotoxicity in HepG2 cells (MTS viability). Particulars: 24 hours, up to 100 μM.
Experimental: To find the cytotoxic effect of this class of new thiazolidinedione compounds (TZD), they were incubated in HepG2 cells for 24 hours and then the viability was measured by colorimetric reactions with MTS.
In data set [5] the test system is db/db mice. The experiment in a line: Serum cholesterol in db/db mice. The class given is in vivo. The following applies: 50 mg/kg once daily for 14 days. On the procedure:
Referring to FIG. 6, db/db mice (6-8 weeks old) were treated with Compound 2 (50 mg/kg) once daily for 14 days. At the end of the study serum cholesterol was measured by a calorimetric method.

Take “{4-[4-(2,4-Dioxo-thiazolidin-5-ylmethyl)-phenoxy]-phenyl}-acetic acid disodium salt [Compound 2]”: in the data set with 3T3-L1 adipocytes, the basal glucose uptake entry was “induced glucose uptake over basal levels”. The “inhibition of LPS-induced NO production (nitrite concentration)” value in data set [1] is recorded as “inhibition of LPS-induced NO production”. For the same compound, the “adipogenesis (differentiation of fibroblasts, Oil-red-O)” value in the data set on 3T3-L1 fibroblasts is “non-adipogenic”. The “inhibition of pro-inflammatory cytokines (TNF by ELISA)” value in the data set on TNFα is listed as “inhibit major pro-inflammatory cytokines”. Also, the blood glucose entry in data set [2] is “blood glucose lowering effect”. In the data set on db/db mice [3], the glucose tolerance entry was “improvement in glucose tolerance”.

`O=C(O)Cc1ccc(Oc2ccc(CC3SC(=O)NC3=O)cc2)cc1` (stereo not drawn) [Compound 1, {4-[4-(2,4-Dioxothiazolidin-5-ylmethyl)phenoxy]-phenyl}acetic acid]: the “cytotoxicity (viability by MTS)” value in data set [4] was “did not show any toxicity”. Also, the serum cholesterol entry in the data set with db/db mice [5] was “serum cholesterol lowering effect”. Besides, the basal glucose uptake result with 3T3-L1 adipocytes is “induced glucose uptake over basal levels”. In data set [1], the “inhibition of LPS-induced NO production (nitrite concentration)” value is “inhibition of LPS-induced NO production”. The “adipogenesis (differentiation of fibroblasts, Oil-red-O)” value in the data set on 3T3-L1 fibroblasts is “non-adipogenic”. Also, the “inhibition of pro-inflammatory cytokines (TNF by ELISA)” value in the data set on TNFα is reported as “inhibit major pro-inflammatory cytokines”.
